Source: patent US20050203169A1, “Methods and compositions for treating diseases associated with excesses in ACE” (priority 2001, published 2005)
Read-outs that look alike come from different tables or passages of the source.

Legend:
[1] = tested on: patient with end-stage COPD; assay: Outcome for patient with COPD on ramipril
serum potassium = tested on: serum potassium
Text: As described above, fludrocortisone acetate ([…]) can be used to control serum K+ concentration. […] Diabetes Technology & Therapeutics. […] This can be easily achieved using […] (fludrocortisone acetate; see Table A).

[2] = tested on: patients with kidney failure; assay: Clinical observations in patients with kidney failure; format: in vivo, human
circulating ACE = target: T1, circulating ACE (Homo sapiens, UniProt P12821); conditions: cited from earlier work; for circulating ACE inhibited: 5 mg dose; for inhibition of enzyme activity: equal amount (5 mg)
T1 construct: from tissue; host or cells: circulation (blood, plasma or serum) of dosed subjects

[3] = target: ACE (hydrophobic and hydrophilic active site) (Homo sapiens, UniProt P12821); conditions: cited from earlier work
[4] = tested on: patients with CRF (serum creatinine of at least 2 mg/dl); assay: Time to Dialysis in patients with chronic renal failure; format: in vivo, human; conditions: conventional Rx <40 mg/d
Procedure: Outcomes data for patients with CRF due to hypertension, determined as Time to Dialysis, for patients with serum creatinine of at least 2 mg/dl at the first clinic visit:
The following are the expected differences in outcomes for patients with CRF due to NIDDM, determined as Time to Dialysis, for patients with serum creatinine of at least 2 mg/dl at the first clinic visit:
The following are the expected differences in outcomes for patients with ADPKD, determined as Time to Dialysis, for patients with serum creatinine of at least 2 mg/di at the fist clinic visit.

[5] = compared with ramipril; cited from earlier work
[6] = tested on: blood pressure (index of maximum tissue ACE inhibition); conditions: rats, IV; cited from earlier work
[7] = tested on: patients on ACE inhibitors; conditions: cited from earlier work
hemodialysis patients = assay: Ramipril in hemodialysis patients with ESRD due to hypertension; format: in vivo, human; conditions: 5 mg/day; two black hemodialysis patients
new cases of NIDDM = conditions: HOPE study (NEJM Jan. 21, 2000); cited from earlier work

Sequence of ACE (hydrophobic and hydrophilic active site) (P12821 30-1306): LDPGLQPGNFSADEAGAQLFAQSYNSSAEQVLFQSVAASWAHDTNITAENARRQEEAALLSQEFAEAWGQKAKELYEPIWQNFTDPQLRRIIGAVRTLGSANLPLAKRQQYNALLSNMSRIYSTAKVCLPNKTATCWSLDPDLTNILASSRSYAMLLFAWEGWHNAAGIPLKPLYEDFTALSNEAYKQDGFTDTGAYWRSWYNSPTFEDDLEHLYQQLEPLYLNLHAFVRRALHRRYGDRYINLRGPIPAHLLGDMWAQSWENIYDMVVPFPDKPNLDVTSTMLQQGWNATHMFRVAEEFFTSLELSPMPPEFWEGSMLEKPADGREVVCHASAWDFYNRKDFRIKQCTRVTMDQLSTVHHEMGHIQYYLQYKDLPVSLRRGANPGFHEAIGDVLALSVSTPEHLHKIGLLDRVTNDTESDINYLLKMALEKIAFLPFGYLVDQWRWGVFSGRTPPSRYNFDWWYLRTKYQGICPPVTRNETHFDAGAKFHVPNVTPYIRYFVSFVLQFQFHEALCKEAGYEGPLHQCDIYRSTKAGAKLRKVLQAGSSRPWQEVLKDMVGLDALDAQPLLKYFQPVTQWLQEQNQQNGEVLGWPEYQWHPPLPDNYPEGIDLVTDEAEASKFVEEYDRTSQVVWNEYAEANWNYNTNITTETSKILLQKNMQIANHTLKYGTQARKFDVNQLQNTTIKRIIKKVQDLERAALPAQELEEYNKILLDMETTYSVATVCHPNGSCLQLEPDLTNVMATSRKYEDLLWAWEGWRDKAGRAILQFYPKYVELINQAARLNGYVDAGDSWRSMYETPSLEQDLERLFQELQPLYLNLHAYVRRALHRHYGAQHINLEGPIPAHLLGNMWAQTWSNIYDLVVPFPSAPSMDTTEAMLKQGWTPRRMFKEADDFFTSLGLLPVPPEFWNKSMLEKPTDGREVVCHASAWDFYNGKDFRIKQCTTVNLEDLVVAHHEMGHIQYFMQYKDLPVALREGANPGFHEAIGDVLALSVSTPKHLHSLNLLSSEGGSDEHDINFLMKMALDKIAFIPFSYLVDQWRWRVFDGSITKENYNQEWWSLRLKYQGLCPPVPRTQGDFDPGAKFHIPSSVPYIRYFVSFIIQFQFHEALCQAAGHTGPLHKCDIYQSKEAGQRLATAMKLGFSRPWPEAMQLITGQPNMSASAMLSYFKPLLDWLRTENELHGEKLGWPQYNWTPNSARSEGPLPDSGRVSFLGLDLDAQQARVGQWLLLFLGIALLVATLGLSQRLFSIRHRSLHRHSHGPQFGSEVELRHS
T1 sequence (P12821 30-1232 limits assumed): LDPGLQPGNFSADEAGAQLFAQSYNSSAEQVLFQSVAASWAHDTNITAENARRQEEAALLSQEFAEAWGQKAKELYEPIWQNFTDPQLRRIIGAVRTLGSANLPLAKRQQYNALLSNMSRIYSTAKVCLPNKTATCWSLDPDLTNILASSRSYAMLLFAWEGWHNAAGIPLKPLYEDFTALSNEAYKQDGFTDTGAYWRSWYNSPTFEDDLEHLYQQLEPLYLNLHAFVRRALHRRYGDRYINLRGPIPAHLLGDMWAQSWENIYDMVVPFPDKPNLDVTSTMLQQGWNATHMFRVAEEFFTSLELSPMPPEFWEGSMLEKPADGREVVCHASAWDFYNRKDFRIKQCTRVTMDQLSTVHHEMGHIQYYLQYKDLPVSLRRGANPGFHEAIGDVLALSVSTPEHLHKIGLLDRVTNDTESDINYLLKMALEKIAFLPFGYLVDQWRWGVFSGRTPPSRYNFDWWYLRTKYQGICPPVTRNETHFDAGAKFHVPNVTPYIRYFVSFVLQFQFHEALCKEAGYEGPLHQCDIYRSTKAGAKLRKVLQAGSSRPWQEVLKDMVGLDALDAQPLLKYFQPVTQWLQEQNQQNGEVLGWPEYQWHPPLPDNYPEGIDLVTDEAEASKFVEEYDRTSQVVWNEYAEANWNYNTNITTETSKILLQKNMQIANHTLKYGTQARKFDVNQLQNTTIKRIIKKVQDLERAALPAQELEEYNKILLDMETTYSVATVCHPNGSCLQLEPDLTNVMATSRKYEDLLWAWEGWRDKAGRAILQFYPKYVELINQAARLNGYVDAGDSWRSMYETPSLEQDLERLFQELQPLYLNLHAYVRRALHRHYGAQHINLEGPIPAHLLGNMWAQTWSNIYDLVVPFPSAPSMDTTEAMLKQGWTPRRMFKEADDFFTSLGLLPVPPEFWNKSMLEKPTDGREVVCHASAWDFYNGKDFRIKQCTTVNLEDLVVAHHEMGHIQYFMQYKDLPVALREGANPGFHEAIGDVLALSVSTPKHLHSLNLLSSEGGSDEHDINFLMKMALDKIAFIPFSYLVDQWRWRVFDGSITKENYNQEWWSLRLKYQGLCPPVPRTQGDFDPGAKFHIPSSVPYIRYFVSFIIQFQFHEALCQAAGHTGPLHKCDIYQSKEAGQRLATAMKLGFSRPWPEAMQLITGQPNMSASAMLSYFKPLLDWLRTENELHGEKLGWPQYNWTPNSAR

SMILES: CCOC(=O)C1=C(COCCN)NC(C)=C(C(=O)OC)C1c1ccccc1Cl (stereo not drawn) [Amlodipine]
- adverse event when added for BP control ([1]; COPD patient on ramipril): Developed CHF

SMILES: CC(=O)OCC(=O)[C@@]1(O)CC[C@H]2[C@@H]3CCC4=CC(=O)CC[C@]4(C)[C@@]3(F)[C@@H](O)C[C@@]21C [Florinef, fludrocortisone acetate]
- volume (fluid) retention (serum potassium; in vivo): # retention and congestive heart failure. Clinical observation indicates that volume retention occurs with daily FLORINEF but not with less-than-daily use, even up to five times a week.
- serum potassium under adequate control (serum potassium; same daily dose despite higher dose of ACE inhibitor): below 5.3 mEq/l
- control of serum potassium (serum potassium; up to 0.1 mg daily, chronic renal failure patients on high dose ACE inhibitor (e.g. 2 mg/kg/day quinapril)): could control serum potassium

SMILES: CCCCc1nc(Cl)c(CO)n1Cc1ccc(-c2ccccc2-c2nn[nH]n2)cc1 [Losartan]
- benefit when added to QUINAPRIL ([2]; 50 mg/day, patients with kidney failure): no added benefit
- effect on serum potassium (serum potassium; combined with an ACE inhibitor): elevation of serum potassium

SMILES: CCOC(=O)[C@H](CCc1ccccc1)N[C@@H](C)C(=O)N1CCC[C@H]1C(=O)O [enalapril]
- circulating ACE inhibited (circulating ACE): 47%
- inhibition of enzyme activity (circulating ACE): 50%
- off-rate t(1/2) ([3]; hydrophilic site in the circulating form of the enzyme): ~4 h

SMILES: CCOC(=O)[C@H](CCc1ccccc1)N[C@@H](C)C(=O)N1Cc2ccccc2C[C@H]1C(=O)O [quinapril]
- Time to Dialysis ([4]; ADPKD, Caucasian men): 8.8 yr
- Time to Dialysis ([4]; CRF due to NIDDM, African American men): 3.3 yr
- Time to Dialysis ([4]; CRF due to NIDDM, Caucasian men): 2.7 yr
- Time to Dialysis ([4]; CRF due to hypertension, African American men): 3.6 yr
- Time to Dialysis ([4]; CRF due to hypertension, Caucasian men): 4.3 yr
- serum creatinine on treatment ([2]; Patient, 20 mg/day given hs, decreased from 4.5): 1.7 mg/di
- slowing down kidney failure ([2]; comparison of quinapril with ramipril): superior to RAMIPRIL
- off-rate t(1/2) ([3]; hydrophobic active site): ~24 h
- octanol: water partition coefficient [5]: higher
- dose at which maximum blood pressure lowering occurred [6]: 3 mg/kg
- dose-toxicity curve ([7]; from 5 mg/day to 80 mg/day): flat
- patients with elevation of mood ([7]; use by 12,000 patients): 20%

SMILES: CCOC(=O)[C@H](CCc1ccccc1)N[C@@H](C)C(=O)N1[C@H](C(=O)O)C[C@@H]2CCC[C@@H]21 [ramipril]
- serum glucose (hemodialysis patients): 40 mg/dL
- serum potassium (hemodialysis patients): above 6 mEq/l
- circulating ACE inhibited (circulating ACE): 97%
- inhibition of enzyme activity (circulating ACE): greater than 95%
- off-rate t(1/2) ([3]; hydrophobic active site): ~24 h
- new cases of NIDDM (new cases of NIDDM): prevention of new cases of NIDDM
- FEV1 ([1]; 8/99, baseline 0.87 L): 0.83 L
- BP ([1]; currently on 600 mg/d): 135/80
- effect on pulmonary hypertension ([1]; emphysema (COPD)): appears to lower pulmonary hypertension
- non-fluid weight gain ([1]; human, in vivo): 25 lb.
- hospitalization ([1]; period of over five years): Hospitalized for CHF but not for COPD
- BP ([1]; two weeks after start of 2.5 mg/d, first seen with BP 104/60): 180/110
